The values below come from PubChem BioAssay AID320 (DTP/NCI, 2004).

The assay relates to BDF1 mice, P329 reticulum cell sarcoma ip, survival T/C. In words: NCI In Vivo Anticancer Drug Screen. Data for tumor model P329 Reticulum Cell Sarcoma (intraperitoneal) in B6D2F1 (BDF1) mice. As to conditions: endpoint: median survival time, higher = longer survival. As to the method: The antitumor activity of compounds was measured in mice bearing transplantable tumors. Survival or tumor size were measured and the results are expressed as the measurement made in the treated group (T) divided by the measurement made in the vehicle treated control group (C). The tumor model used in this assay is P329 Reticulum Cell Sarcoma (intraperitoneal) in B6D2F1 (BDF1) mice

The mark [1] stands for this setting: dose: 12.5 mg/kg/injection, schedule: Q01DX010 (sc), vehicle: steriod suspending solution.
[2] abbreviates: dose: 25.0 mg/kg/injection, schedule: Q01DX010 (sc), vehicle: steriod suspending solution.
Where [3] appears, read: dose: 50.0 mg/kg/injection, schedule: Q01DX010 (sc), vehicle: steriod suspending solution.
Where [4] appears, read: dose: 3.13 mg/kg/injection, schedule: Q01DX010 (ip), vehicle: saline.
Where [5] appears, read: dose: 6.25 mg/kg/injection, schedule: Q01DX010 (ip), vehicle: saline.
Setting [6] is: dose: 12.5 mg/kg/injection, schedule: Q01DX010 (ip), vehicle: saline.
Setting [7] is: dose: 25.0 mg/kg/injection, schedule: Q01DX010 (ip), vehicle: saline.

Molecules are shown by their SMILES. Where “and” joins values, the source holds several entries; their conditions need not be identical. Identical values can stand only once. Toxic doses and inconclusive results are not listed.

`Nc1nc(N)c2nc(CNc3ccc(C(=O)NC(CCC(=O)O)C(=O)O)cc3)cnc2n1` (stereo not given): the T/C (dose: 0.05 mg/kg/injection, schedule: Q01DX010 (ip), vehicle: other) was 111 % of control; the T/C (dose: 0.1 mg/kg/injection, schedule: Q01DX010 (ip), vehicle: other) was 107 % of control; the T/C (dose: 0.2 mg/kg/injection, schedule: Q01DX010 (ip), vehicle: other) was 123 % of control.
In the case of `O=C(Nc1ccc(C2=NCCN2)cc1)c1ccc(C(=O)Nc2ccc(C3=NCCN3)cc2)c([N+](=O)[O-])c1`, the T/C runs as follows: (dose: 6.0 mg/kg/injection, schedule: Q01DX010 (ip), vehicle: saline) 153 % of control and 175 % of control; (dose: 8.0 mg/kg/injection, schedule: Q01DX010 (ip), vehicle: saline) 188 % of control and 212 % of control; (dose: 18.0 mg/kg/injection, schedule: Q01DX010 (ip), vehicle: saline) 91 % of control.
`C[C@]12C=CC(=O)C=C1CC[C@@H]1[C@@H]2[C@@H](O)C[C@@]2(C)[C@H]1CC[C@]2(O)C(=O)CO`: the T/C by setting is: under setting [1], 100 % of control and 103 % of control; under setting [2], 100 % of control; under setting [3], 100 % of control; (dose: 100.0 mg/kg/injection, schedule: Q01DX010 (sc), vehicle: steriod suspending solution) 100 % of control.
Take `CN(Cc1cnc2nc(N)nc(N)c2n1)c1ccc(C(=O)N[C@@H](CCC(=O)O)C(=O)O)cc1`: the T/C is, setting by setting: (dose: 0.19 mg/kg/injection, schedule: Q01DX010 (ip), vehicle: other) 101 % of control and 106 % of control; (dose: 0.38 mg/kg/injection, schedule: Q01DX010 (ip), vehicle: other) 100 % of control and 110 % of control and 116 % of control; (dose: 0.75 mg/kg/injection, schedule: Q01DX010 (ip), vehicle: other) 114 % of control.
Regarding `CN(C)c1ccc(/C=C/c2ccnc3ccccc23)cc1`, the T/C is, setting by setting: (dose: 5.0 mg/kg/injection, schedule: Q01DX010 (ip), vehicle: saline) 100 % of control and 103 % of control; (dose: 10.0 mg/kg/injection, schedule: Q01DX010 (ip), vehicle: saline) 92 % of control and 107 % of control; (dose: 20.0 mg/kg/injection, schedule: Q01DX010 (ip), vehicle: saline) 96 % of control and 103 % of control; (dose: 40.0 mg/kg/injection, schedule: Q01DX010 (ip), vehicle: saline) 92 % of control and 100 % of control.
In the case of `N#CCSc1ncnc2nc[nH]c12`, the T/C is, setting by setting: (dose: 15.0 mg/kg/injection, schedule: Q01DX010 (ip), vehicle: saline) 150 % of control; (dose: 30.0 mg/kg/injection, schedule: Q01DX010 (ip), vehicle: saline) 115 % of control; (dose: 120.0 mg/kg/injection, schedule: Q01DX010 (ip), vehicle: saline) 173 % of control.
On to `O=C(O)CCCc1ccc(N(CCCl)CCCl)cc1`, for which the T/C by setting is: under setting [4], 96 % of control and 108 % of control; under setting [5], 103 % of control and 108 % of control; under setting [6], 116 % of control and 119 % of control.
Turning to `CC(=O)O[C@]1(C(C)=O)CC[C@H]2[C@@H]3C[C@H](C)C4=CC(=O)C=C[C@]4(C)[C@@]3(F)[C@@H](O)C[C@@]21C`, the T/C reads like this: under setting [1], 93 % of control; under setting [2], 93 % of control; under setting [3], 93 % of control.
Regarding `S=c1nc[nH]c2nc[nH]c12`, the T/C runs as follows: (dose: 20.0 mg/kg/injection, schedule: Q01DX010 (ip), vehicle: alkali diluted with saline) 150 % of control; (dose: 80.0 mg/kg/injection, schedule: Q01DX010 (ip), vehicle: alkali diluted with saline) 158 % of control.
With `Clc1ccc(C(c2ccccc2Cl)C(Cl)Cl)cc1` (stereo not given), the T/C runs as follows: (dose: 62.5 mg/kg/injection, schedule: Q01DX010 (sc), vehicle: steriod suspending solution) 100 % of control; (dose: 125.0 mg/kg/injection, schedule: Q01DX010 (sc), vehicle: steriod suspending solution) 100 % of control; (dose: 250.0 mg/kg/injection, schedule: Q01DX010 (sc), vehicle: steriod suspending solution) 107 % of control; (dose: 500.0 mg/kg/injection, schedule: Q01DX010 (sc), vehicle: steriod suspending solution) 103 % of control.
In the case of `C[C@H]1C(=O)O[C@@H]2CCN3CC=C(COC(=O)[C@](C)(O)[C@@]1(C)O)[C@H]23`, the T/C is, setting by setting: under setting [4], 106 % of control and 107 % of control; under setting [5], 103 % of control and 107 % of control; under setting [6], 103 % of control; under setting [7], 100 % of control and 103 % of control.
In the case of `CS(=O)(=O)OCCC(=O)N1CCN(C(=O)CCOS(C)(=O)=O)CC1`, the T/C is, setting by setting: under setting [7], 117 % of control; (dose: 200.0 mg/kg/injection, schedule: Q01DX010 (ip), vehicle: saline) 89 % of control.
Take `CCN(CC)CCNc1ccc(C)c2sc3ccccc3c(=O)c12`: the T/C was 111 % of control and 114 % of control under setting [7]; 115 % of control (dose: 100.0 mg/kg/injection, schedule: Q01DX010 (ip), vehicle: saline).
